Data set [1] has as its system human esophageal squamous 81T/VGH cells. Kind of data set: MTT cell viability, growth inhibition on esophageal squamous cells. As to conditions: for Inhibition (%): 81T/VGH cells; for ex vivo growth of esophageal cancerous cells inhibited: time not stated. It counts as cell-based. The protocol:
(§1) Cell lines used in the present disclosure include human chronic is myelogenous leukemia (CML) cell line K562, erythroleukemia HEL cells, human pancreatic carcinoma epithelial-like cell line PANC-1, human esophageal squamous cell carcinoma line 81T/VGH, human esophageal adenocarcinoma line BE-3 and human esophageal adenocarcinoma cell line SKGT4. Each cell lines were cultured and maintained in Dulbecco's modified Eagle media (DMEM) supplemented with 10% fetal calf serum, 100 IU/ml penicillin, 100 μg/ml streptomycin, and 2 mM glutamine in 5% CO2 at 37° C.
(§2) The absorbance of the solution at 570 nm was measured by spectrophotometer.
Effects of the compounds of formula (I) of this disclosure, particularly, EN 22, EN 24, and EN 25, on 81T/VGH cells were assessed by cell viability analysis in accordance with procedures described above.

Data set [2] deals with human esophageal squamous 81T/VGH xenograft tumor. Briefly: Tumor size in animals grafted with 81T/VGH cancer cells. Type of data set: in vivo, Athymic BALB/c-nu nude mice. As to conditions: FIG. 1. The protocol: For inoculated tumor model, 1×10^5 81T/VGH cells were injected subcutaneously to lab animals to generate s.c. tumors (5×10^5 cells per injection) on day 1. The needle hole was sealed with an electric coagulator (Aaron, Petersburg, Fla., USA) immediately after the withdrawal of the needle to avoid leakage of the injected substance. The incision was subsequently sutured.
Results are depicted in FIGS. 1 to 3, respectively.

Data set [3] is described as follows: Body weight of tumor-bearing treated animals. The note with it: EN 22 alone, FIG. 2.
Procedure: (§7) Athymic BALB/c-nu nude mice (4 weeks old) were obtained from the National Laboratory Animal Center (Taipei, Taiwan) and were kept in a pathogen-free facility with ad libitum access to water and laboratory chow. A solution of 81T/VGH cells was injected into the subcutaneous tissue to establish a xenograft tumor.
Tumor sizes were measured using calipers, and tumor volume was calculated using the formula: volume=width^2×length×0.52.
(§8) Mice were inoculated with esophageal squamous tumor cells in accordance with the procedures described above. For in vivo therapy, animals were given 2 mg/Kg cisplatin intraperitoneally, in the presence or absence of 20 mg/Kg EN 22, which was given orally, for a period of at least 4 weeks. Tumor size, body weight, white blood cell count, and liver function of each animal were then measured respectively at the indicated time.
Data set [4] can be described thus: White blood cell counts, liver or kidney function of treated animals. The note with it: EN 22 25 or 50 mg/Kg, FIG. 3.
Procedure: as §7
After treatment, mice were sacrificed and their white blood cells (WBC) counts were measured. Tumor burdens were determined by the total volume of all the tumor nodules with diameter greater than 3 mm.
as §8
Data set [5] has as its system human chronic myelogenous leukemia (CML) K562 cells. Briefly: MTT cell viability, growth inhibition on chronic myelogenous leukemia cells. It counts as cell-based. As to conditions: for Inhibition (%): 10 μM, K562 cells; for ex vivo growth of CML cells suppressed: about 10 μM, time not stated. The protocol:
as §1, §2
Effects of the compounds of formula (I) or (II) of this disclosure, particularly, EN 22, EN 26, and EN 28, on K562 cells were assessed by cell viability analysis in accordance with procedures described above.

Data set [6] deals with CD61 and CD235a in HEL cells. Briefly: Flow cytometric analysis of CD61 and CD235a expression. It counts as cell-based, human. The note with it: 5 μM. The source says:
The induction of megakaryocytic differentiation may also be confirmed by the measurement of the differentiation markers CD61 and CD235a expressed on the erythrocyte membrane during the differentiation stage.
A general note: A flow cytometer gives signals particle by particle.

For data set [7], the system named is human erythroleukemia (HEL) cells. Briefly: In vitro growth inhibition of HEL cells. It counts as cell-based. The protocol:
as §1, §2

The test system of data set [8] is HEL cells. Briefly: Cell cycle analysis by flow cytometry. It counts as cell-based, human. The note with it: FIG. 8. As to the method:
Cultured cells with or without pre-treatment of the compounds of this invention (i.e., the compound of formula (I) or (II)) were harvested from the cultured media and fixed by incuating with 75% iced cold ethanol at 4° C. for at least over night. The fixed cells were then warmed up to room temperature and treated with RNAase A for about 30 min. Precipitated cells were collected by centrifugation and re-suspended in a buffer solution containing propidium iodine (20 μg/ml) before being subject to flow cytometry analysis, where cell numbers at respective cell cycles were determined.

Data set [9] deals with stat3 and phosphorylated stat3. Kind of data set: Immunoblot of stat3 and phosphorylated stat3 in HEL cells. The note with it: compared with control, FIG. 9. Type of data set: cell-based, human. The protocol:
(§3) Cultured cells were lysed by use of well known lysing buffer, and total amount of proteins were determined by Bradford method. The extracted raw proteins (about 50-100 μg) were loaded to […] sodium dodecyl sulfate polyacrylamide gel, and proteins therein were separated by electrophoresis. The separated proteins were then transferred to nitrocellulose membrane and non-specific binding was removed by TBST buffer (0.8% NaCl, 0.02% KCl, 25 mM Tris-HCl/pH 8.0 and 0.1% Tween-20) containing 4% skim milk. Antibodies including p-Jak2, Jak2, p-stat3-2, stat3, p-stat5, stat5, and GAPDH (purchased from Transduction Laboratories, Lexington, Ky., USA), were respectively dissolved in TBST buffer containing 2% skim milk and incubated with the separated protein bands at 4° C. for at least over night; followed by incubation with horseradish conjugated secondary antibodies at room temperature for about 30 min, and then detected by ECL chemiluminesance detection kit (Amersham Pharmacia Biotech, US).
(§4) The induction of K562 cells or HEL cells to form megakaryocytes was further investigated by measuring the expressed level of its regulatory proteins such as, stat3 and phosphorylated stat3.
Background: In western blotting, separated proteins are transferred to a membrane and probed.

Another data set has as its system K562 cells. Briefly: Megakaryocyte formation, morphology by Liu's staining, K562. It counts as cell-based, human. The note with it: 10 μM, 9 days, FIG. 6. As to the method:
(§5) Cells were transferred to a glass coverslide and covered with solution A (0.5 g of methylene blue and 1.7 g of Eosin yellow dissolved in 1,000 ml of ethanol). After 45 seconds, solution B (1.3 g of azure, 1.4 g of methylene blue, 23.38 g of Na2HPO4, 6.5 g of KH2PO4, dissolved in 1,000 ml of distilled water) was added in the proportion of 2 parts of B to 1 part of A. Mixed the solutions well by blowing the surface. The slide was left standing for 90 seconds and then washed off the staining solution rapidly by running water. The morphology of stained cells was then examined by observation under microscope.
(§6) Megarkaryocytopoiesis is a process by which bone marrow progenitor cells develop into mature megakaryocytes, which in turn produce platelets required for normal hemostasis.

Data set [10] has as its system HEL cells. Briefly: Megakaryocyte formation, morphology by Liu's staining, HEL. As to conditions: 10 μM, 5 days, FIG. 7. It counts as cell-based, human. The protocol: as §5, §6
Data set [11] deals with HEL cells. Kind of data set: STAT3 RNAi assay, megakaryocytic differentiation after Stat3 knockdown. As to conditions: Stat3 small interference RNA, FIG. 10. It counts as cell-based, human. The source says: The murine stat3 target sequence from positions 134 to 158 (5′-TGGCCCAATGGAATCAGCTACAGCA-3′ (SEQ ID NO: 1)) was selected for the preparation of stat3 siRNA (5′-UGGCCCAAUGGAAUCAGCUACAGCA-3′ (SEQ ID NO: 2)). Scrambled RNAs were employed as a negative control and were synthesized by PCR-derived siRNA expression cassettes according to the manufacturer's instructions and were then cloned into pSEC™ hygro plasmid (Ambion).
[…] HEL cells were transfected with the plasmids (i.e., plasmids containing the nucleic acid for the stat3 siRNA or scramble RNAs) described above with the aid of the lipofectamine 2000 (Invitrogen, Carisbad, Calif. USA). Specifically, 5 μg pSEC™ hygro plasmid contained murine stat3 siNAs and 9 μl lipofectamine 2000 were allowed to form complexes in a period of 25 min at room temperature in antibiotic-free DMEM medium. The complexes were then added to HEL cells maintained and cultured in 6-well dishes and further incubated for another 24 hrs. For the selection of cells with high expression rate of siRNA, stable clones of murine stat3 siRNA expressed cells and negative control siRNA (i.e., scrambled RNA) were selected by use of 500 μg/ml hygromycin contained medium, and the selected clones were maintained in 250 ? μg/ml hygromycin contained medium. […]

The test system of data set [12] is stat3 and phosphorylated stat3. Kind of data set: Immunoblot of stat3 and phosphorylated stat3 in K562 cells. As to conditions: compared with control, FIG. 9. It counts as cell-based, human. As to the method:
as §3, §4

The subject of the next data set is normal bone marrow cells. Kind of data set: Induction and proliferation of megakaryocytes from normal bone marrow cells. As to conditions: 1.25 μM, FIG. 12. It counts as cell-based.

Take `CC1C(O)CCC2C1(C)CCC1C2(C)CCC2(C)C3CC(C)(C)CCC3(C)CCC12C` (stereo not drawn) [EN 25, 3α-Friedelinol]: the “Inhibition (%)” value in data set [1] (1 μM, 24 hrs) is given as 49.45%; in [1] (1 μM, 48 hrs), 39.99%; in data set [1] (10 μM, 24 hrs), 61.74%; in data set [1] (10 μM, 48 hrs) it was 62.55%. Also, the “ex vivo growth of esophageal cancerous cells inhibited” value was “about 50%” in data set [1] (about 1 μM) and “about 60%” in data set [1] (about 10 μM).

With `CC1(C)CC[C@]2(C)CC=C3[C@]4(C)CC[C@H]5C(C)(C)[C@@H](O)CC[C@]5(C)[C@H]4CC[C@@]3(C)[C@@H]2C1` [EN 24, 3β-Taraxerol], the “Inhibition (%)” value in data set [1] (1 μM, 24 hrs) is 49.15%; in [1] (1 μM, 48 hrs) it was 43.47%; in [1] (10 μM, 24 hrs), 63.99%; in data set [1] (10 μM, 48 hrs) it was 57.10%.

Consider `N.N.[Cl][Pt][Cl]` [cisplatin, reference compound], for which the “tumor size (growth of tumor)” value in data set [2] (cisplatin 2 mg/Kg intraperitoneally) is given as “capable of suppressing the growth of tumor during the entire treatment period”.

As for `CC1C(O)CCC2C1(C)CCC1C2(C)CCC2(C)C3CC(C)(C)CCC3(C)CCC12C` (stereo not drawn) [EN 22, 3β-Friedelinol], the “Inhibition (%)” value in data set [1] (1 μM, 24 hrs) is 51.98%; in data set [1] (1 μM, 48 hrs), 41.42%; in data set [1] (10 μM, 24 hrs) it was 58.03%; in [1] (10 μM, 48 hrs), 58.61%; in data set [5] (48 hrs), 39.32%; in [5] (72 hrs), 45.38%. The results for the “ex vivo growth of esophageal cancerous cells inhibited” value in [1] (about 1 μM) and in data set [1] (about 10 μM) were “about 50%” and “about 60%”, respectively. For the same compound, in [3], the body weight loss entry is “free from the “weight lost” problem”. Also, the “white blood cell (WBC) counts” value in data set [4] is “did not affect the number of WBC”. In addition, the “ex vivo growth of CML cells suppressed” value in [5] is recorded as “about 45%”. Also, the “tumor size (growth of tumor)” value in [2] (EN 22 orally, 20 and 50 mg/Kg) is “able to suppress the growth of the tumor in a dose dependent manner”.

As for `CC=C(C)C(=O)OC1C(OC(C)=O)C(C)=CC23OC2(CC(C)C3OC(C)=O)C(=O)C(C)C(OC(C)=O)C2C1C2(C)C` (centres unmarked) [EN 26, 3,7,12-O-Triacetyl-8-O-tigioylingol], the “Inhibition (%)” value turned out to be 12.74% in [5] (24 hrs), 30.38% in data set [5] (48 hrs) and 42.35% in [5] (72 hrs). Further, in [5], the “ex vivo growth of CML cells suppressed” value is on record as “about 40%”.

`CC=C(C)C(=O)OC1C(C)=CC23OC2(CC(C)C3OC(C)=O)C(=O)C(C)C(OC(C)=O)C2C(C1OC)C2(C)C` (centres unmarked) [EN 28, 3,12-O-Diacetyl-7-O-angeloyl-8-methoxyingol]: the “effect of Stat3 knockdown on CD61 and CD235a changes” value in data set [6] (HEL cells with siStat3, FIG. 11) was “not antagonized”. The CD61 expression entry in data set [6] (HEL cells, FIG. 11) was “up-regulation”. Moreover, the CD235a expression result in [6] (HEL cells, FIG. 11) is listed as “down-regulation”. The “in vitro growth of HEL cells inhibited” value is “about 55%” in data set [7] (5 μM), “about 60%” in data set [7] (10 μM) and “about 40%” in data set [7] (about 2.5 μM). Moreover, in the data set on HEL cells [8], the cell cycle analysis entry is recorded as “capable of inducing the generation of new population of cells”. The “level of phosphorylated stat-3” value in data set [9] and in [12] was “increased” throughout. For the same compound, the “level of stat3” value in data set [9] and in data set [12] was “increased” in each case. The “morphology change, formation of megakaryocytes” value with K562 cells is “cells started to fuse and form megakaryocytes”. For the same compound, the “morphology change, differentiation into megakaryocytes” value with HEL cells [10] is given as “induces the differentiation of HEL cells into megakaryocytes”. The “induction of megakaryocytic differentiation after knockdown of Stat3” value in the data set with HEL cells [11] is “partially reversed”. For the same compound, the “proliferation and differentiation into megakaryocytes” value in the data set on normal bone marrow cells is “capable of inducing the proliferation and subsequently, the differentiation of the proliferated normal bone marrow cells into megakaryocytes”. Moreover, in data set [5] (48 hrs), the “Inhibition (%)” value amounted to 44.85%. In addition, the “ex vivo growth of CML cells suppressed” value in data set [5] is reported as “about 50%”.

(Values after US8846768B2, “Use of compounds isolated from Euphorbia neriifolia for treating cancer and/or thrombocytopenia” (Mackay Memorial Hospital, priority 2012, dated 2014).)
